Data: the supplement of paper PMC10307832

How the values were obtained:
Test in all cases: relative viability (nuclei count vs DMSO), 5 days (fraction); higher = more cells survive
NCI-H2342 = system: NCI-H2342
Method in brief: (§1)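 Relative viability was taken as the ratio of nuclei in treated wells to nuclei in vehicle wells. Lung cancer cell lines in 1536-well plates received compounds by pin tool one day after seeding, either one drug alone or a fixed anchor-drug dose plus five library-drug doses (not always all listed) in √10 steps. Nuclei were counted on 4× images after 5 days of treatment, and values are medians of duplicate plates.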

NCI-H1437 = system: NCI-H1437
Method in brief: as §1

NCI-H2087 = system: NCI-H2087
Method in brief: as §1

NCI-H23 = system: NCI-H23
Method in brief: as §1

HCC-827 = system: HCC-827
Method in brief: as §1

LXF-289 = system: LXF-289
Method in brief: as §1

PC-3 [JPC-3] = system: PC-3 [JPC-3]
Method in brief: as §1

H3255 = system: H3255
Method in brief: as §1

NCI-H2228 = system: NCI-H2228
Method in brief: as §1

NCI-H1975 = system: NCI-H1975
Method in brief: as §1

NCI-H661 = system: NCI-H661
Method in brief: as §1

HCC-366 = system: HCC-366
Method in brief: as §1

SK-MES-1 = system: SK-MES-1
Method in brief: as §1

LCLC-103H = system: LCLC-103H
Method in brief: as §1

NCI-H2009 = system: NCI-H2009
Method in brief: as §1

HCC-15 = system: HCC-15
Method in brief: as §1

LC-2-ad = system: LC-2-ad
Method in brief: as §1

COR-L23 = system: COR-L23
Method in brief: as §1

PC-14 = system: PC-14
Method in brief: as §1

NCI-H2085 = system: NCI-H2085
Method in brief: as §1

ABC-1 = system: ABC-1
Method in brief: as §1

NCI-H1666 = system: NCI-H1666
Method in brief: as §1

UMC-11 = system: UMC-11
Method in brief: as §1

Q: What does the source list for CN1CCN(CCOc2cc(OC3CCOCC3)c3c(Nc4c(Cl)ccc5c4OCO5)ncnc3c2)CC1 [Saracatinib] + COc1cccc2cc(-c3nc([C@H]4CC[C@H](C(=O)O)CC4)n4ncnc(N)c34)[nH]c12 [OSI-027] (partner 0.5 µM)?
A: relative viability (NCI-H2342; first compound 0.02 µM): 0.689; relative viability (NCI-H2342; first compound 0.2 µM): 0.702; relative viability (NCI-H2342; first compound 0.6325 µM): 0.64; relative viability (NCI-H2342; first compound 2 µM): 0.637; relative viability (NCI-H1437; first compound 0.02 µM): 0.913; relative viability (NCI-H1437; first compound 0.2 µM): 0.671; relative viability (NCI-H1437; first compound 0.6325 µM): 0.96; relative viability (NCI-H1437; first compound 2 µM): 0.812; relative viability (NCI-H2087; first compound 0.02 µM): 0.609; relative viability (NCI-H2087; first compound 0.2 µM): 0.393; relative viability (NCI-H2087; first compound 0.6325 µM): 0.953; relative viability (NCI-H2087; first compound 2 µM): 0.742; relative viability (NCI-H23; first compound 0.02 µM): 0.649; relative viability (NCI-H23; first compound 0.2 µM): 0.425; relative viability (NCI-H23; first compound 0.6325 µM): 0.659; relative viability (NCI-H23; first compound 2 µM): 0.503; relative viability (HCC-827; first compound 0.02 µM): 0.791; relative viability (HCC-827; first compound 0.2 µM): 0.564; relative viability (HCC-827; first compound 0.6325 µM): 0.259; relative viability (HCC-827; first compound 2 µM): 0.122; relative viability (LXF-289; first compound 0.02 µM): 0.765; relative viability (LXF-289; first compound 0.2 µM): 0.735; relative viability (LXF-289; first compound 0.6325 µM): 0.744; relative viability (LXF-289; first compound 2 µM): 0.677; relative viability (PC-3 [JPC-3]; first compound 0.02 µM): 0.793; relative viability (PC-3 [JPC-3]; first compound 0.2 µM): 0.718; relative viability (PC-3 [JPC-3]; first compound 0.6325 µM): 0.61; relative viability (PC-3 [JPC-3]; first compound 2 µM): 0.436; relative viability (H3255; first compound 0.02 µM): 0.587; relative viability (H3255; first compound 0.2 µM): 0.589; relative viability (H3255; first compound 0.6325 µM): 0.542; relative viability (H3255; first compound 2 µM): 0.284; relative viability (NCI-H2228; first compound 0.02 µM): 0.719; relative viability (NCI-H2228; first compound 0.2 µM): 0.343; relative viability (NCI-H2228; first compound 0.6325 µM): 0.529; relative viability (NCI-H2228; first compound 2 µM): 0.381; relative viability (NCI-H1975; first compound 0.02 µM): 0.678; relative viability (NCI-H1975; first compound 0.2 µM): 0.585; relative viability (NCI-H1975; first compound 0.6325 µM): 0.686; relative viability (NCI-H1975; first compound 2 µM): 0.403; relative viability (NCI-H661; first compound 0.02 µM): 0.707; relative viability (NCI-H661; first compound 0.2 µM): 0.655; relative viability (NCI-H661; first compound 0.6325 µM): 0.502; relative viability (NCI-H661; first compound 2 µM): 0.467; relative viability (HCC-366; first compound 0.02 µM): 1.02; relative viability (HCC-366; first compound 0.6325 µM): 0.757; relative viability (HCC-366; first compound 2 µM): 0.385; relative viability (SK-MES-1; first compound 0.02 µM): 0.609; relative viability (SK-MES-1; first compound 0.2 µM): 0.603; relative viability (SK-MES-1; first compound 0.6325 µM): 0.475; relative viability (SK-MES-1; first compound 2 µM): 0.234; relative viability (LCLC-103H; first compound 0.02 µM): 0.481; relative viability (LCLC-103H; first compound 0.2 µM): 0.427; relative viability (LCLC-103H; first compound 0.6325 µM): 0.505; relative viability (LCLC-103H; first compound 2 µM): 0.459; relative viability (NCI-H2009; first compound 0.02 µM): 0.628; relative viability (NCI-H2009; first compound 0.2 µM): 0.547; relative viability (NCI-H2009; first compound 0.6325 µM): 0.579; relative viability (NCI-H2009; first compound 2 µM): 0.357; relative viability (HCC-15; first compound 0.02 µM): 0.806; relative viability (HCC-15; first compound 0.2 µM): 0.586; relative viability (HCC-15; first compound 0.6325 µM): 0.708; relative viability (HCC-15; first compound 2 µM): 0.605; relative viability (LC-2-ad; first compound 0.02 µM): 0.844; relative viability (LC-2-ad; first compound 0.2 µM): 0.804; relative viability (LC-2-ad; first compound 0.6325 µM): 0.881; relative viability (LC-2-ad; first compound 2 µM): 0.728; relative viability (COR-L23; first compound 0.02 µM): 0.698; relative viability (COR-L23; first compound 0.2 µM): 0.684; relative viability (COR-L23; first compound 0.6325 µM): 0.746; relative viability (COR-L23; first compound 2 µM): 0.641; relative viability (PC-14; first compound 0.02 µM): 0.81; relative viability (PC-14; first compound 0.2 µM): 0.406; relative viability (PC-14; first compound 0.6325 µM): 0.151; relative viability (PC-14; first compound 2 µM): 0.0888; relative viability (NCI-H2085; first compound 0.02 µM): 0.839; relative viability (NCI-H2085; first compound 0.2 µM): 0.723; relative viability (NCI-H2085; first compound 0.6325 µM): 0.772; relative viability (NCI-H2085; first compound 2 µM): 0.78; relative viability (ABC-1; first compound 0.02 µM): 0.428; relative viability (ABC-1; first compound 0.2 µM): 0.65; relative viability (ABC-1; first compound 0.6325 µM): 0.547; relative viability (ABC-1; first compound 2 µM): 0.543; relative viability (NCI-H1666; first compound 0.02 µM): 0.914; relative viability (NCI-H1666; first compound 0.2 µM): 0.863; relative viability (NCI-H1666; first compound 0.6325 µM): 1.2; relative viability (NCI-H1666; first compound 2 µM): 1.07; relative viability (UMC-11; first compound 0.02 µM): 0.503; relative viability (UMC-11; first compound 0.6325 µM): 0.453; relative viability (UMC-11; first compound 2 µM): 0.339
